The record followed here is ChEMBL document CHEMBL1201862, “PubChem BioAssay data set” (2004).

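Following 48 hours of exposure in 96-well plates, responses at five concentrations were used to interpolate endpoints linearly. GI50: concentration for 50% inhibition of growth.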 Active and inactive are the calls of the source. Cut-off read from the data, not from the text of the source: active = GI50 up to about 1.1 µM and inactive = higher.

What all share (assay): NCI anticancer screen, dose series, 48 h
For test [1], the system named is ACHN.
Test [2] has as its system CAKI-1.
In test [3] the test system is COLO 205.
The subject of test [4] is HOP-62.
Test [5] has as its system K562.
Test [6] has as its system Malme-3M.
In test [7] the test system is NCI-H460.
The test system of test [8] is OVCAR-3.
Test [9] has as its system RXF 393.
Test [10] has as its system SK-MEL-2.
For test [11], the system named is SK-MEL-5.
In test [12] the test system is SK-OV-3.
The subject of test [13] is SNB-19.
For test [14], the system named is SW-620.
Test [15] has as its system TK-10.
The test system of test [16] is HCT-15.
Test [17] relates to NCI-H522.

Take `O=C1OC(=O)C2C3CCC(O3)C12` (stereo unspecified): the GI50 in [1], in test [2], in test [3], in [4], in [5] and in test [6] was > 100 µM (inactive) throughout. Further, the GI50 in test [7], in test [8], in test [9], in test [10], in test [11] and in [12] was > 100 µM (inactive) throughout. For the same molecule, the GI50 in test [13], in test [14] and in test [15] was > 100 µM (inactive) in each case.
On to `Nc1nc(N)c(N=O)c(Nc2ccc(Br)cc2)n1`, for which the GI50 is 6.58 µM (inactive) in test [1]; 29.4 µM (inactive) in test [2]; 19.9 µM (inactive) in test [3]; 15.3 µM in test [16]; 14.6 µM (inactive) in [4]; > 100 µM (inactive) in test [5]. Besides, the GI50 in [6] was 13.3 µM (inactive); in test [7], 26.5 µM (inactive); in [17] it was 17.9 µM (inactive); in test [8], 13.1 µM (inactive); in test [10], 21.4 µM (inactive); in test [12] it was 32.4 µM (inactive). The GI50 in [13] is 45.1 µM (inactive); in test [14] it was 33.5 µM (inactive); in test [15], 29.1 µM (inactive).
Regarding `Cc1cc2c(cc1C)[n+]([O-])c(-c1c(Cl)cccc1Cl)c(N)[n+]2[O-]`, the GI50 is 36.5 µM (inactive) in test [1]; 31 µM (inactive) in [2]; 18.7 µM (inactive) in test [3]; 28.4 µM in [16]; 30.5 µM (inactive) in test [4]; 32 µM (inactive) in [5]. In addition, the GI50 is 31.1 µM (inactive) in test [6]; 30.3 µM (inactive) in test [7]; 9.27 µM (inactive) in test [17]; 28.2 µM (inactive) in test [8]; 31.6 µM (inactive) in [10]; 20.7 µM (inactive) in test [11]. Further, the GI50 in test [12] was 66.4 µM (inactive); in test [13], 25.5 µM (inactive); in test [14], 35.1 µM (inactive); in test [15], > 100 µM (inactive).
Turning to `O=C(c1ccc(Cl)cc1)c1ccc(OCC(=O)N2CCN(c3ccccc3)CC2)cc1`, the GI50 was > 100 µM (inactive) in test [1]; > 100 µM (inactive) in test [2]; > 100 µM (inactive) in test [3]; more than 100 µM in test [16]; > 100 µM (inactive) in [4]; > 100 µM (inactive) in test [5]. The GI50 in test [6] was > 100 µM (inactive); in test [7] it was > 100 µM (inactive); in [8], > 100 µM (inactive); in [9], > 100 µM (inactive); in [10] it was > 100 µM (inactive); in test [11], 41.6 µM (inactive). Further, the GI50 in test [12], in [13], in test [14] and in test [15] was > 100 µM (inactive) throughout.
For `CC1=NN=C(NCCN(C)C)C/C1=C/c1ccccc1Cl`, the GI50 in test [1] was > 100 µM (inactive); in test [2], 73.5 µM (inactive); in [3] it was > 100 µM (inactive); in [16] it was more than 100 µM; in [4], > 100 µM (inactive); in test [6] it was 27.6 µM (inactive). The GI50 is > 100 µM (inactive) in test [7]; > 100 µM (inactive) in [8]; 95.1 µM (inactive) in [9]; > 100 µM (inactive) in [10]; 48.6 µM (inactive) in test [11]; > 100 µM (inactive) in test [12]. Moreover, the GI50 in test [13], in [14] and in test [15] was > 100 µM (inactive) each time.
For the molecule `C=CCOC(C)n1c(C)cc(=O)n(C(C)OCC=C)c1=O` (stereo unspecified), the GI50 in test [1] was > 100 µM (inactive); in test [3] it was > 100 µM (inactive); in [16] it was more than 100 µM; in test [4], > 100 µM (inactive); in test [5], > 100 µM (inactive); in test [6], > 100 µM (inactive). For the same molecule, the GI50 in test [17], in test [9], in [11], in test [12], in [13] and in test [14] was > 100 µM (inactive) in each case.
As to `Cc1c(C(=O)NCCO)[n+]([O-])c2cc(Cl)ccc2[n+]1[O-]`, the GI50 was > 100 µM (inactive) in test [1]; > 100 µM (inactive) in test [3]; more than 100 µM in test [16]; > 100 µM (inactive) in [4]; > 100 µM (inactive) in test [5]; > 100 µM (inactive) in test [6]. Besides, the GI50 is > 100 µM (inactive) in [7]; > 100 µM (inactive) in test [8]; > 100 µM (inactive) in [9]; > 100 µM (inactive) in test [11]; 86.9 µM (inactive) in test [12]; > 100 µM (inactive) in test [13]. Besides, the GI50 in test [14] and in [15] was > 100 µM (inactive) in each case.
Regarding `CCOC(=O)c1ncn2c1[nH]c(=O)c1ccccc12`, the GI50 in test [1] is > 100 µM (inactive); in [3], > 100 µM (inactive); in test [16] it was more than 100 µM; in test [5], > 100 µM (inactive); in [6] it was > 100 µM (inactive); in test [7] it was > 100 µM (inactive). For the same molecule, the GI50 in test [17], in [8], in test [9], in test [10], in test [11] and in [13] was > 100 µM (inactive) each time. Besides, the GI50 in test [14] and in test [15] was > 100 µM (inactive) each time.
`O=C1C=C(c2c(O)ccc3ccccc23)c2cc(O)ccc2C1=O`: the GI50 in test [1] was 17.4 µM (inactive); in test [2], 19.5 µM (inactive); in test [3] it was 19.5 µM (inactive); in test [16] it was 16.7 µM; in test [4], 20 µM (inactive); in [5], > 100 µM (inactive). In addition, the GI50 is 19.2 µM (inactive) in test [6]; 20.3 µM (inactive) in [7]; 10.7 µM (inactive) in test [8]; 14.6 µM (inactive) in [9]; 20.1 µM (inactive) in test [10]; 15.1 µM (inactive) in test [11]. Further, the GI50 in test [12] is 23.5 µM (inactive); in test [13], 17.5 µM (inactive); in test [14], 18.2 µM (inactive); in test [15], 20.9 µM (inactive).
Consider `COc1cc(/C=C\c2ccc(OC(C)=O)cc2)cc(OC)c1OC`, for which the GI50 in [1] is 6.46 µM (inactive); in test [2] it was 29.1 µM (inactive); in test [3], 13.3 µM (inactive); in test [4], 5.32 µM (inactive); in [5] it was 2.59 µM (inactive); in test [6], 2.06 µM (inactive). Besides, the GI50 in [7] is 4.1 µM (inactive); in [17], 2.92 µM (inactive); in [8] it was 3.29 µM (inactive); in [10] it was 4.26 µM (inactive); in test [12] it was > 100 µM (inactive); in test [13], 0.668 µM (active). For the same molecule, the GI50 in test [14] was 3.36 µM (inactive).
